Experiments:
[1] = Presence of at least one case with successful reintroduction. [column 'REINT' in source]; conditions: human
[2] = Comments (NB not yet translated). [column 'COMMENTAIRES' in source]; conditions: human
[3] = Times to onset, minimal and maximal, observed in the indexed observations. [column 'DELAI' in source]; conditions: human
[4] = Proposed mechanism(s) of liver damage. [column 'MEC' in source]; conditions: human
[5] = human
[6] = human; remark: listed apart in the source
[7] = human, serum, 4383 h
[8] = human; remark: listed apart in the source
[9] = human; remark: listed apart in the source
[10] = human; remark: listed apart in the source
[11] = human; remark: listed apart in the source
[12] = human; remark: listed apart in the source
[13] = human; remark: listed apart in the source
[14] = human; remark: listed apart in the source
[15] = Highest frequency of moderate liver toxicity observed during clinical trials, expressed as a percentage. [column '% BIOL' in source]; conditions: human
[16] = Highest frequency of acute liver toxicity observed during clinical trials, expressed as a percentage. [column '% AIGUE' in source]; conditions: human
[17] = human, serum
[18] = human, serum; remark: listed apart in the source
[19] = human; remark: listed apart in the source
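For Hepatotoxicity (association with vascular disease) in this document: count of indexed literature references reporting vascular liver injury in humans, e.g. peliosis hepatitis, hepatic veno-occlusive disease or Budd-Chiari syndrome.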
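For Hepatotoxicity (benign tumour) in this document: value is a count of indexed literature references citing a benign tumour confirmed by histopathology.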
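For Hepatotoxicity (choleostasis) in this document: human cholestatic liver injury, shown by histopathology or by peak ALT or AST elevation over alkaline phosphatase ratio below 2, value counts indexed literature reports.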
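For Hepatotoxicity (chronic liver disease) in this document: chronic liver injury confirmed by histopathology or persistently raised serum aminotransferase activity beyond 6 months, value given as the count of indexed literature references.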
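For Hepatotoxicity (cirrhosis) in this document: value is a count of indexed literature references reporting cirrhosis confirmed by histopathology.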
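For Hepatotoxicity (cytolytic) in this document: human cytolytic liver injury, shown by histopathology or by a ratio above 5 of peak ALT or AST elevation to alkaline phosphatase elevation, value counts indexed references.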
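For Hepatotoxicity (granulomatous hepatitis) in this document: value is a count of indexed literature references reporting granulomatous liver disease confirmed by histopathology.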
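For Hepatotoxicity (malignant tumour) in this document: malignant tumour confirmed by histopathology, value gives the count of indexed literature references reporting it.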
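For Hepatotoxicity (severe hepatitis) in this document: human clinical data: severe hepatitis, meaning potentially life-threatening liver failure or clinically observed cases, the value counts how many indexed literature references report it.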
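For Hepatotoxicity (steatosis) in this document: steatosis confirmed by histopathology, value is the count of indexed references.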

CC(=O)Nc1ccc(O)cc1 [ACETAMINOPHEN]
Hepatotoxicity (successful reintroduction) [1]: yes
Hepatotoxicity (comment) [2]: I/ALCOOL/PHENYTOINE/PHENOBARBITAL/IFN/ZIDOVUDINE #CBP
Hepatotoxicity (time to onset) [3]: 1 day - 12 years
Hepatotoxicity (mechanism) [4]: Allergic, Toxic Metabolite
Hepatotoxicity (cytolytic) [5]: 98
Hepatotoxicity (choleostasis) [6]: 5
Hepatotoxicity (chronic liver disease) [7]: 7
Hepatotoxicity (cirrhosis) [8]: 5
Hepatotoxicity (granulomatous hepatitis) [9]: 1
Hepatotoxicity (association with vascular disease) [10]: 0
Hepatotoxicity (steatosis) [11]: 1
Hepatotoxicity (malignant tumour) [12]: 0
Hepatotoxicity (benign tumour) [13]: 0
Hepatotoxicity (animal toxicity known) [14]: yes

Cc1nnc2n1-c1ccc(Cl)cc1C(c1ccccc1)=NC2 [ALPRAZOLAM]
Hepatotoxicity (moderate) [15]: 8%
Hepatotoxicity (acute) [16]: 0.4%
Hepatotoxicity (successful reintroduction) [1]: yes
Hepatotoxicity (time to onset) [3]: 3 days - 3 weeks
Hepatotoxicity (mechanism) [4]: Dose-dependant
Hepatotoxicity (moderate) [17]: 3
Hepatotoxicity (acute) [18]: 4
Hepatotoxicity (cytolytic) [5]: 2
Hepatotoxicity (choleostasis) [6]: 1
Hepatotoxicity (severe hepatitis) [19]: 1
Hepatotoxicity (chronic liver disease) [7]: 0
Hepatotoxicity (cirrhosis) [8]: 0
Hepatotoxicity (granulomatous hepatitis) [9]: 0
Hepatotoxicity (association with vascular disease) [10]: 1
Hepatotoxicity (steatosis) [11]: 0
Hepatotoxicity (malignant tumour) [12]: 0
Hepatotoxicity (benign tumour) [13]: 0
Hepatotoxicity (animal toxicity known) [14]: A

C[C@@H]1[C@H](O)[C@@H](C)/C=C/C=C/C=C/C=C/C=C/C=C/C=C/[C@H](O[C@@H]2O[C@H](C)[C@@H](O)[C@H](N)[C@@H]2O)C[C@@H]2O[C@](O)(C[C@@H](O)C[C@@H](O)[C@H](O)CC[C@@H](O)C[C@@H](O)CC(=O)O[C@H]1C)C[C@H](O)[C@H]2C(=O)O [AMPHOTERICIN B]
Hepatotoxicity (moderate) [15]: 91.7%
Hepatotoxicity (acute) [16]: 50%
Hepatotoxicity (successful reintroduction) [1]: yes
Hepatotoxicity (time to onset) [3]: 2 days - 4 months
Hepatotoxicity (mechanism) [4]: Dose-dependant
Hepatotoxicity (moderate) [17]: 28
Hepatotoxicity (acute) [18]: 15
Hepatotoxicity (cytolytic) [5]: 6
Hepatotoxicity (choleostasis) [6]: 7
Hepatotoxicity (severe hepatitis) [19]: 4
Hepatotoxicity (chronic liver disease) [7]: 0
Hepatotoxicity (cirrhosis) [8]: 0
Hepatotoxicity (granulomatous hepatitis) [9]: 0
Hepatotoxicity (association with vascular disease) [10]: 0
Hepatotoxicity (steatosis) [11]: 2
Hepatotoxicity (malignant tumour) [12]: 0
Hepatotoxicity (benign tumour) [13]: 0
Hepatotoxicity (animal toxicity known) [14]: yes

C[C@H](CCC(=O)O)[C@H]1CC[C@H]2[C@@H]3[C@H](O)C[C@@H]4C[C@H](O)CC[C@]4(C)[C@H]3CC[C@]12C [CHENODIOL]
Hepatotoxicity (moderate) [15]: 37%
Hepatotoxicity (acute) [16]: 3%
Hepatotoxicity (successful reintroduction) [1]: yes
Hepatotoxicity (time to onset) [3]: 3 weeks - 3 months
Hepatotoxicity (mechanism) [4]: Dose-dependant
Hepatotoxicity (moderate) [17]: 22
Hepatotoxicity (acute) [18]: 5
Hepatotoxicity (cytolytic) [5]: 3
Hepatotoxicity (choleostasis) [6]: 2
Hepatotoxicity (severe hepatitis) [19]: 0
Hepatotoxicity (chronic liver disease) [7]: 1
Hepatotoxicity (cirrhosis) [8]: 0
Hepatotoxicity (granulomatous hepatitis) [9]: 0
Hepatotoxicity (association with vascular disease) [10]: 0
Hepatotoxicity (steatosis) [11]: 0
Hepatotoxicity (malignant tumour) [12]: 0
Hepatotoxicity (benign tumour) [13]: 0
Hepatotoxicity (animal toxicity known) [14]: yes

O=c1ccc2ccccc2o1 [COUMARIN]
Hepatotoxicity (moderate) [15]: 8.7%
Hepatotoxicity (acute) [16]: 4.3%
Hepatotoxicity (successful reintroduction) [1]: yes
Hepatotoxicity (time to onset) [3]: 5 days - 6 months
Hepatotoxicity (mechanism) [4]: Dose-dependant
Hepatotoxicity (moderate) [17]: 8
Hepatotoxicity (acute) [18]: 16
Hepatotoxicity (cytolytic) [5]: 11
Hepatotoxicity (choleostasis) [6]: 1
Hepatotoxicity (severe hepatitis) [19]: 3
Hepatotoxicity (chronic liver disease) [7]: 0
Hepatotoxicity (cirrhosis) [8]: 0
Hepatotoxicity (granulomatous hepatitis) [9]: 0
Hepatotoxicity (association with vascular disease) [10]: 0
Hepatotoxicity (steatosis) [11]: 0
Hepatotoxicity (malignant tumour) [12]: 0
Hepatotoxicity (benign tumour) [13]: 0
Hepatotoxicity (animal toxicity known) [14]: yes

O=C1CN(/N=C/c2ccc(-c3ccc([N+](=O)[O-])cc3)o2)C(O)=N1 [DANTROLENE]
Hepatotoxicity (moderate) [15]: 1.8%
Hepatotoxicity (acute) [16]: 0.6%
Hepatotoxicity (successful reintroduction) [1]: yes
Hepatotoxicity (comment) [2]: CHOLANGITE
Hepatotoxicity (time to onset) [3]: 7 days - 1 year
Hepatotoxicity (moderate) [17]: 11
Hepatotoxicity (acute) [18]: 11
Hepatotoxicity (cytolytic) [5]: 10
Hepatotoxicity (choleostasis) [6]: 6
Hepatotoxicity (severe hepatitis) [19]: 7
Hepatotoxicity (chronic liver disease) [7]: 1
Hepatotoxicity (cirrhosis) [8]: 0
Hepatotoxicity (granulomatous hepatitis) [9]: 0
Hepatotoxicity (association with vascular disease) [10]: 0
Hepatotoxicity (steatosis) [11]: 0
Hepatotoxicity (malignant tumour) [12]: 0
Hepatotoxicity (benign tumour) [13]: 0
Hepatotoxicity (animal toxicity known) [14]: yes

NC(N)=Nc1nc(CSCCN/C=N/S(=O)(=O)c2ccc(Br)cc2)cs1 [EBROTIDINE]
Hepatotoxicity (moderate) [15]: 0%
Hepatotoxicity (acute) [16]: 0%
Hepatotoxicity (successful reintroduction) [1]: yes
Hepatotoxicity (comment) [2]: AC_ANTI-ML
Hepatotoxicity (time to onset) [3]: 2 weeks - 6 months
Hepatotoxicity (moderate) [17]: 0
Hepatotoxicity (acute) [18]: 2
Hepatotoxicity (cytolytic) [5]: 2
Hepatotoxicity (choleostasis) [6]: 0
Hepatotoxicity (severe hepatitis) [19]: 1
Hepatotoxicity (chronic liver disease) [7]: 1
Hepatotoxicity (cirrhosis) [8]: 1
Hepatotoxicity (granulomatous hepatitis) [9]: 0
Hepatotoxicity (association with vascular disease) [10]: 0
Hepatotoxicity (steatosis) [11]: 0
Hepatotoxicity (malignant tumour) [12]: 0
Hepatotoxicity (benign tumour) [13]: 0
Hepatotoxicity (animal toxicity known) [14]: yes

COc1ccc2c(c1)c(CC(=O)O)c(C)n2C(=O)c1ccc(Cl)cc1 [INDOMETHACIN]
Hepatotoxicity (moderate) [15]: 25%
Hepatotoxicity (acute) [16]: 1%
Hepatotoxicity (successful reintroduction) [1]: yes
Hepatotoxicity (time to onset) [3]: 3 days - 10 years
Hepatotoxicity (mechanism) [4]: Allergic, Reactive metabolite
Hepatotoxicity (moderate) [17]: 7
Hepatotoxicity (acute) [18]: 17
Hepatotoxicity (cytolytic) [5]: 8
Hepatotoxicity (choleostasis) [6]: 10
Hepatotoxicity (severe hepatitis) [19]: 5
Hepatotoxicity (chronic liver disease) [7]: 0
Hepatotoxicity (cirrhosis) [8]: 0
Hepatotoxicity (granulomatous hepatitis) [9]: 0
Hepatotoxicity (association with vascular disease) [10]: 0
Hepatotoxicity (steatosis) [11]: 0
Hepatotoxicity (malignant tumour) [12]: 0
Hepatotoxicity (benign tumour) [13]: 0
Hepatotoxicity (animal toxicity known) [14]: yes

Cc1ncc([N+](=O)[O-])n1CCO [METRONIDAZOLE]
Hepatotoxicity (moderate) ([15]; Liver): 25%
Hepatotoxicity (acute) ([16]; Liver): 0%
Hepatotoxicity (successful reintroduction) [1]: yes
Hepatotoxicity (time to onset) [3]: 1 day - 2.3 months
Hepatotoxicity (mechanism) [4]: Dose-dependant
Hepatotoxicity (moderate) [17]: 4
Hepatotoxicity (acute) [18]: 10
Hepatotoxicity (cytolytic) [5]: 8
Hepatotoxicity (choleostasis) [6]: 2
Hepatotoxicity (severe hepatitis) ([19]; Liver): 1
Hepatotoxicity (chronic liver disease) [7]: 0
Hepatotoxicity (cirrhosis) [8]: 0
Hepatotoxicity (granulomatous hepatitis) [9]: 0
Hepatotoxicity (association with vascular disease) [10]: 0
Hepatotoxicity (steatosis) [11]: 0
Hepatotoxicity (malignant tumour) [12]: 0
Hepatotoxicity (benign tumour) [13]: 0
Hepatotoxicity (animal toxicity known) [14]: yes

N=C(N)c1ccc(OCCCCCOc2ccc(C(=N)N)cc2)cc1 [PENTAMIDINE]
Hepatotoxicity (moderate) [15]: 43.5%
Hepatotoxicity (acute) [16]: 0%
Hepatotoxicity (successful reintroduction) [1]: yes
Hepatotoxicity (time to onset) [3]: 1 week - 3 months
Hepatotoxicity (moderate) [17]: 17
Hepatotoxicity (acute) [18]: 4
Hepatotoxicity (cytolytic) [5]: 4
Hepatotoxicity (choleostasis) [6]: 0
Hepatotoxicity (severe hepatitis) [19]: 2
Hepatotoxicity (chronic liver disease) [7]: 0
Hepatotoxicity (cirrhosis) [8]: 0
Hepatotoxicity (granulomatous hepatitis) [9]: 0
Hepatotoxicity (association with vascular disease) [10]: 0
Hepatotoxicity (steatosis) [11]: 1
Hepatotoxicity (malignant tumour) [12]: 0
Hepatotoxicity (benign tumour) [13]: 0
Hepatotoxicity (animal toxicity known) [14]: yes

CN(N=O)C(=O)N[C@@H](C=O)[C@@H](O)[C@H](O)[C@H](O)CO [STREPTOZOCIN]
Hepatotoxicity (moderate) [15]: 67%
Hepatotoxicity (acute) [16]: 35.3%
Hepatotoxicity (successful reintroduction) [1]: yes
Hepatotoxicity (comment) [2]: CHOLANGITE/IAH
Hepatotoxicity (time to onset) [3]: 4 days - 6 weeks
Hepatotoxicity (moderate) [17]: 9
Hepatotoxicity (acute) [18]: 3
Hepatotoxicity (cytolytic) [5]: 1
Hepatotoxicity (choleostasis) [6]: 0
Hepatotoxicity (severe hepatitis) [19]: 2
Hepatotoxicity (chronic liver disease) [7]: 0
Hepatotoxicity (cirrhosis) [8]: 0
Hepatotoxicity (granulomatous hepatitis) [9]: 0
Hepatotoxicity (association with vascular disease) [10]: 0
Hepatotoxicity (steatosis) [11]: 0
Hepatotoxicity (malignant tumour) [12]: 0
Hepatotoxicity (benign tumour) [13]: 0
Hepatotoxicity (animal toxicity known) [14]: yes

Nc1c2c(nc3ccccc13)CCCC2 [TACRINE]
Hepatotoxicity (moderate) ([15]; Liver): 54%
Hepatotoxicity (acute) ([16]; Liver): 13.4%
Hepatotoxicity (successful reintroduction) [1]: yes
Hepatotoxicity (time to onset) [3]: 1 week - 1.7 years
Hepatotoxicity (mechanism) ([4]; Liver): Dose-dependant
Hepatotoxicity (moderate) [17]: 38
Hepatotoxicity (acute) [18]: 22
Hepatotoxicity (cytolytic) ([5]; Liver): 19
Hepatotoxicity (choleostasis) ([6]; Liver): 1
Hepatotoxicity (severe hepatitis) ([19]; Liver): 2
Hepatotoxicity (chronic liver disease) [7]: 0
Hepatotoxicity (cirrhosis) [8]: 0
Hepatotoxicity (granulomatous hepatitis) ([9]; Liver): 4
Hepatotoxicity (association with vascular disease) [10]: 0
Hepatotoxicity (steatosis) [11]: 1
Hepatotoxicity (malignant tumour) [12]: 0
Hepatotoxicity (benign tumour) [13]: 0
Hepatotoxicity (animal toxicity known) [14]: yes
